Results taken from patent publication US20200181284A1, “EPIGENETIC INHIBITORS FOR SENSITIZING HEMATOLOGIC OR OTHER MALIGNANCIES TO GLUCOCORTICOID THERAPY” (UNIVERSITY OF SOUTHERN CALIFORNIA, priority 2017, published 2020).

What was measured:
[1] = tested on: EHMT2 phosphorylation; test: Phosphorylation of EHMT2 in NALM-6 cells (pan ph-T immunoprecipitation, EHMT2 immunoblot); type: cell-based, human; details: NALM-6, 16 nM AZD2811, 24 h
Description: (§1) Cells were treated as indicated, and cell extracts were prepared in RIPA buffer ([…] Tris-HCl, pH 8, 150 mM NaCL, 1 mM EDTA, 1% NP-40, and 0.25% deoxycholate) supplemented with protease inhibitor tablets (Roche Molecular Biochemicals) and phosphatase inhibitors (1 mM NaF, 1 mM Na3VO4, and 1 mM β-glycerophosphate). Protein extracts were incubated overnight at 4° C. with shaking with 1 μg of antibodies against EHMT2 (Sigma G6919), EHMT1 (Millipore 09-078), or pan phospho-threonine (Millipore AB1607). Protein A/G plus agarose beads (Santa Cruz sc-2003) were added, and the mixture was incubated 2 h at 4° C. The immunoprecipitates were separated on SDS-PAGE. […]
FIGS. 48A, 48B, 48C, 48D, 48E, and 48F show the effect of AURKB inhibitors on EHMT2 phosphorylation and dex-induced cell death. […] In each condition, the value measured with dex was normalized to the fluorescence value measured with ethanol. Percentage of survival is shown as the mean±SEM of 4 independent experiments and p-values for individual dex concentrations were calculated using a paired t-test. *p≤0.05, **p≤0.01, * * *p≤0.001. […] EC50s were calculated as the concentration at which half the cells remained alive, compare to vehicle controls. Error bars depict the SEM of 4 independent experiments and p-value was calculated to compare ZM treatment to DMSO using a paired t-test **p≤0.01, * * *p≤0.001. […]

[2] = tested on: GR target genes in NALM6 cells; test: RT-qPCR of GR target genes in NALM6 cells; type: cell-based, human; details: NALM6, 16 nM AZD2811 24 h, then 100 nM dex 8 h
Description: RNA was isolated using TRIzol (Invitrogen) according to the manufacturer's instructions. Reverse transcription reaction was performed using Superscript III (ThermoFisher) according to specifications with 1 μg of total RNA as template. Quantitative PCR amplification of the resulting cDNA was performed on a Roche LightCycler 480 using SYBR green I master mix (Roche). mRNA levels were normalized to the level of b-actin mRNA.
(§2) FIGS. 40A, 40B, 40C, 40D-1, 40D-2, 40D-3, and 40D-4 show Aurora kinase B inhibitors sensitizing NALM6 cells to GC-induced cell death. As shown in FIGS. 40A and 40B, NALM6 cells were treated with the indicated dex concentration in addition to 0.75 μM ZM447439 (FIG. 40A), 16 nM AZD2811 (FIG. 40B), or equivalent volume of vehicle DMSO for 72 h, and cell survival was measured by a fluorescence metabolic assay. In each condition, the value measured with dex was normalized to the fluorescence value measured with ethanol. Percentage of survival is shown as the mean±SEM of 4 independent experiments and p-values for individual dex concentrations were calculated using a paired t-test. *p≤0.05, **p≤0.01, * * *p≤0.001. F-test comparing the two curves: p≤0.001. Insets show the EC50s that were calculated as the concentration at which half the cells remained alive, compare to vehicle controls. Error bars depict the SEM of 4 independent experiments and p-values were calculated to compare AURKB inhibitor treatment to DMSO using a paired t-test ** p≤0.01, * * *p≤0.001. […] The indicated proteins were then examined by immunoblot. As shown in FIGS. 40D-1, 40D-2, 40D-3, and 40D-4, NALM6 cells pre-treated with AZD2811 (16 nM) or DMSO for 24 h, were then treated for 8 h with 100 nM dex or ethanol. mRNA levels for the indicated GR target genes were measured by RT-qPCR and normalized to β-actin mRNA levels.
FIGS. 54A, 54B, and 54C highlight the GR Target genes that require G9a and GLP as coactivators.

[3] = tested on: LAX7R and LAX56 primary human B-ALL cells; test: Survival of primary B-ALL cells co-cultured with OP-9 feeder cells (Annexin V/7AAD); type: cell-based
Description: Primary ALL cells (LAX7R and LAX56) were established from mouse xenografts derived from patient samples (Adam et al., 2017; Hsieh et al., 2013). They were cultured in 24 well tissue-culture plates on irradiated OP-9 cells with growth medium containing MEM-α with 20% heat-inactivated fetal bovine serum, and 100 IU/ml penicillin and 100 μg/ml streptomycin. On day 3 and day 5 after the addition of drugs, ALL cells were collected, and apoptosis was assessed using PE Annexin V Apoptosis Detection Kit with 7-AAD.
As shown FIGS. 41A-1, 41A-2, 41B-1, and 41B-2, LAX7R (FIGS. 41A-1 and 41A-2) or LAX56 (FIGS. 41B-1 and 41B-2) primary human B-ALL cells were co-cultured with OP-9 feeder cells for 3 days (left) or 5 days (right) in the presence of the indicated drugs, and cell survival was determined by staining with Annexin/7AAD. p-value was calculated using a paired t-test, and different symbols were used to indicate p-values between different groups.+indicates statistical significance (+p≤0.05, ++p≤0.01 and + + + p≤0.001) between Dexamethasone or AZD2811 treated group and DMSO control group; # indicates statistical significance (#p≤0.05, ##p≤0.01 and # # # p≤0.001) between AZD2811+Dexamethasone combination group and AZD2811 group; * indicates statistical difference (*p≤0.05, **p≤0.01, * * *p≤0.001) between combination group and respective Dexamethasone treated groups. Values shown are mean and SD for 3 biological replicates, which are representative of 3 independent experiments.

[4] = tested on: NALM6 cells; test: Cell death assay (Presto Blue, 72 h) with dex plus inhibitor; type: cell-based, human
Description: Cells were plated in CellStar low evaporation lid 96-well round-bottom plate at a density of 100,000 cells/ml. Directly after plating, cells were treated in triplicate with serial dilutions of dexamethasone or vehicle control (0.1% ethanol). After 72 h, cell viability of each well was analyzed in duplicate using the Presto Blue Assay Reagent (Life Technologies). Fluorescence was measured and data were analyzed with Prism6 software.
as §2
FIGS. 48A, 48B, 48C, 48D, 48E, and 48F show the effect of AURKB inhibitors on EHMT2 phosphorylation and dex-induced cell death. […] In each condition, the value measured with dex was normalized to the fluorescence value measured with ethanol. Percentage of survival is shown as the mean±SEM of 4 independent experiments and p-values for individual dex concentrations were calculated using a paired t-test. *p≤0.05, **p≤0.01, * * *p≤0.001. F-test comparing the two curves: p≤0.001. EC50s were calculated as the concentration at which half the cells remained alive, compare to vehicle controls. Error bars depict the SEM of 4 independent experiments and p-value was calculated to compare ZM treatment to DMSO using a paired t-test **p≤0.01, * * *p≤0.001. […] EC50s were calculated as the concentration at which half the cells remained alive, compare to vehicle controls. Error bars depict the SEM of 4 independent experiments and p-value was calculated to compare alisertib treatment to DMSO using a paired t-test. […] (E-F) RCH-ACV cells were treated with the indicated dex concentration in addition to 0.75 μM ZM447439 (FIG. 48E), 16 nM AZD2811 (FIG. 48F), or DMSO for 72 h, and cell survival was measured by a fluorescence metabolic assay. In each condition, the value measured with dex was normalized to the fluorescence value measured with ethanol. Percentage of survival is shown as the mean±SEM of 5 individual experiments and the p-value for each dex concentration was calculated using a paired t-test. *p≤0.05, **p≤0.01, * * *p≤0.001. F-test comparing the two curves: p≤0.001.
FIGS. 55A, 55B, and 55C show JIB-04 enhances GC-induced death of B-ALL cell line NALM6.

[5] = tested on: NALM6 cells; test: Immunoblot of apoptosis markers (cleaved caspase 3, caspase 7, PARP1) in NALM6 cells; type: cell-based, human; details: 16 nM AZD2811 pretreatment 24 h, then 100 nM dex 24 h
Description: as §1
FIGS. 40A, 40B, 40C, 40D-1, 40D-2, 40D-3, and 40D-4 show Aurora kinase B inhibitors sensitizing NALM6 cells to GC-induced cell death. As shown in FIGS. 40A and 40B, NALM6 cells were treated with the indicated dex concentration in addition to 0.75 μM ZM447439 (FIG. 40A), 16 nM AZD2811 (FIG. 40B), or equivalent volume of vehicle DMSO for 72 h, and cell survival was measured by a fluorescence metabolic assay. In each condition, the value measured with dex was normalized to the fluorescence value measured with ethanol. Percentage of survival is shown as the mean±SEM of 4 independent experiments and p-values for individual dex concentrations were calculated using a paired t-test. *p≤0.05, **p≤0.01, * * *p≤0.001. […]

[6] = tested on: G9a methylation; test: G9a methylation level in NALM6 cells treated with KDM inhibitors; type: cell-based, human
Text: There are two distinct families of KDM with distinct catalytic mechanisms (FIG. 50B). We tested one inhibitor for each family: OG-L002 inhibits the two members of the LSD family of KDM, and JIB-04 inhibits several members of the large JmjC family of KDM, including members of the KDM2, KDM3, and KDM4 subfamilies. We propose that there is an equilibrium between the enzymes that methylate G9a and GLP (in this case they methylate themselves) and the KDM enzymes to maintain a moderate level of G9a/GLP methylation (FIGS. 50C-1, 50C-2), and that inhibition of the KDMs that normally demethylate G9a and GLP (currently unknown) will increase the level of G9a/GLP methylation and thereby enhance the coactivator activity of G9a/GLP, the GC activation of the cell death genes, and GC-induced cell death in B-ALL cells. Thus, as a first step to identify the G9a/GLP-specific demethylases, we treated NALM6 cells with the two inhibitors named above. OG-L002 had no effect on the level of G9a methylation, but JIB-04 increased the level of G9a methylation in NALM6 cells (FIG. 50D).

Row | Compound | phosphorylation of EHMT2 [1] | dex-induced expression of dex-effector genes that utilize EHMT2, EHMT1 and CBX3 [2] | cell survival compared with the vehicle-treated control ([3]; 16 nM AZD2811 alone, 3 or 5 days) | cell survival ([3]; 16 nM AZD2811 in combination with 0.1 nM dex, 3 or 5 days) | dex sensitivity of the two dex-resistant primary B-ALL lines ([3]; 16 nM AZD2811 with dex) | dex-induced cell death ([4]; NALM6, 16 nM AZD2811, 72 h) | cleavage of apoptotic markers in dex-treated NALM6 [5] | level of G9a methylation [6] | GC-induced death of NALM6 cells ([4]; 72 hours with various dex concentrations plus KDM inhibitor)
1 | CCN(CCO)CCCOc1ccc2c(Nc3cc(CC(=O)Nc4cccc(F)c4)[nH]n3)ncnc2c1 [AZD2811] | decreased | enhanced | 70-80% | 10-40% | dramatically enhanced | enhanced | increased | – | –
2 | N[C@H]1C[C@@H]1c1ccc(-c2cccc(O)c2)cc1 [OG-L002, 3-[4-[(1R,2S)-2-aminocyclopropyl]phenyl]phenol] | – | – | – | – | – | – | – | no effect | no effect
